Data from publication PMC8588048, “Discovery of Guanidine Derivatives from Buthus martensii Karsch with Metal-Binding and Cholinesterase Inhibition Properties” (Molecules, 2021).
Entries after “also recorded” stand apart in the source; their conditions may differ. Like-named read-outs stand apart in the source and are kept apart here.

Legend:
AChE = biological target: T1, AChE (Electrophorus electricus, UniProt O42275); assay: Enzyme kinetic analysis against AChE; format: biochemical; details: for Ki: Dixon and Cornish–Bowden plots; for type of AChE inhibition: Lineweaver–Burk plots, ATCI 3.75–15.00 mM; for reversibility of AChE inhibition: initial velocity versus enzyme concentration, AChE 0.025–0.10 U/mL
T1 construct: purchased Sigma-Aldrich (St. Louis, MO, USA)
Protocol: […]. Inhibition constants for AChE were determined from Dixon plot (1/Vi vs. (I)) and Cornish–Bowden transformation ((S)/Vi vs. (I)).

[1] = biological target: T2, AChE (EC 3.1.1.7, from electric eel) (Electrophorus electricus, UniProt O42275); assay: biochemical; format: biochemical; details: for SI for AChE = IC50 BChE/IC50 AChE: selectivity index for AChE over BChE
T2 construct: purchased Sigma-Aldrich (St. Louis, MO, USA)
Protocol: (§1) A Waters Acquity UPLC Class I/Xevo G2Q-Tof mass spectrometer (Milford, MA, USA) was used to obtain the high-resolution ESI-MS (HR-ESI-MS) data. ^1H and ^13C NMR spectra were acquired on a Bruker Avance III 400 spectrometer spectrometer (Karlsruhe, Germany) with TMS as an internal standard. ^1H-^1H DQF-COSY, NOESY, TOCSY, HSQC and HMBC spectra were recorded using standard Bruker programs spectrometer (Topspin 3.5pl6, Karlsruhe, Germany). […] Thin layer chromatography (TLC) analysis was performed on alumina plates coated with silica gel 60 and silica gel 60 RP-18 F254 (Merck) spectrometer (Darmstadt, Germany). Chromatographic separation was performed on self-packed columns with silica gel (Anhui Liangchen Silicon Material Co. Ltd., China) and reversed-phase silica gel (ODS-A 12 nm S-50 μm YMC Co., Kyoto, Japan). AChE (EC 3.1.1.7, from electric eel), BChE (EC 3.1.1.8, from equine serum), 5,5′-dithiobis(2-nitrobenzoic acid) (DTNB), acetylthiocholine iodide (ATCI), and butyrylthiocholine iodide (BTCI) were purchased from Sigma-Aldrich (St. Louis, MO, USA).
(§2) AChE (EC 3.1.1.7, from electric eel) and BChE (EC 3.1.1.8, from equine serum) were purchased from Sigma-Aldrich (St. Louis, MO, USA). […] After reaction for 15 min at 25 °C, 10 μL of 10 mM DTNB and 10 μL of 7.5 mM ATCI (BTCI) were added and then incubated for 40 min at 37 °C. […] Blank groups were set up by replacing the sample solution with 20 μL phosphate buffer (Ac). All tests were performed in triplicate.

[2] = biological target: T3, peripheral anionic site (PAS) of AChE (Electrophorus electricus, UniProt O42275); format: binding; details: test compounds 100 μM, propidium iodide 1 μM, AChE 5U
T3 construct: purchased Sigma-Aldrich (St. Louis, MO, USA)
Protocol: The assay mixture of AChE (5U) was incubated with test compounds (final concentration 100 μM, 150 μL) for 6 h at 25 °C. After reaction, 50 μL Propidium iodide (1 μM) was added. […] The percentage of displacement was calculated by the following expression: 100 − (IFi/IF0 × 100), where IFi and IF0 are the fluorescence intensities with and without the test compounds, respectively.

[3] = biological target: T4, BChE (EC 3.1.1.8, from equine serum) (Equus caballus, UniProt P81908); assay: biochemical
T4 construct: purchased Sigma-Aldrich (St. Louis, MO, USA); host or cells: equine serum
Protocol: as §1, §2

[4] = Metal-binding studies (UV spectra); format: physicochemical; details: UV 200–400 nm, compound 20 μM, CuCl2, FeCl2, ZnCl2, AlCl3 20 μM, methanol, 30 min
Protocol: The chelating studies were performed on an ultraviolet–visible spectrophotometry meter (HITACHI U-3900H, Tokyo, Japan). The UV absorption spectra of the test compound alone (20 μM, final concentration) or in the presence of CuCl2, FeCl2, ZnCl2 and AlCl3 (20 μM, final concentration) were recorded with the wavelength ranging from 200 to 400 nm after incubating for 30 min in methanol at room temperature.

[5] = means ± SD, at least three independent experiments, read-out: IC50 AChE
[6] = means ± SD, at least three independent experiments, read-out: IC50 BChE

T4 sequence (P81908 whole entry): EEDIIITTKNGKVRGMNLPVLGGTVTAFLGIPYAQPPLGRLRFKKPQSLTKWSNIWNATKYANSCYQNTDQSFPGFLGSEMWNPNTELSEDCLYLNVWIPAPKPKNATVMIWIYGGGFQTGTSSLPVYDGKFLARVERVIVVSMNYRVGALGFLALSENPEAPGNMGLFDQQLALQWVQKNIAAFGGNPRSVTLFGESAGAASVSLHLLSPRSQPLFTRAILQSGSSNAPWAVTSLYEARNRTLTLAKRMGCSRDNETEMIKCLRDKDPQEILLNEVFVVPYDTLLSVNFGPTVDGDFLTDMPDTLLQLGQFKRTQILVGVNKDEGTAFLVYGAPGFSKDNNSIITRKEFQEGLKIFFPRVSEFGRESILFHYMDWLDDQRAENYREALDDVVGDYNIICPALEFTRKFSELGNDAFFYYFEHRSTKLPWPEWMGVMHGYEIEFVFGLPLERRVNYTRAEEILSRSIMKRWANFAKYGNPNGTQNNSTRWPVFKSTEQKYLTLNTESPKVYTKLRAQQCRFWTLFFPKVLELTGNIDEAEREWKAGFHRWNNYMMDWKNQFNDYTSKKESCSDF
T2 sequence (O42275 24-633): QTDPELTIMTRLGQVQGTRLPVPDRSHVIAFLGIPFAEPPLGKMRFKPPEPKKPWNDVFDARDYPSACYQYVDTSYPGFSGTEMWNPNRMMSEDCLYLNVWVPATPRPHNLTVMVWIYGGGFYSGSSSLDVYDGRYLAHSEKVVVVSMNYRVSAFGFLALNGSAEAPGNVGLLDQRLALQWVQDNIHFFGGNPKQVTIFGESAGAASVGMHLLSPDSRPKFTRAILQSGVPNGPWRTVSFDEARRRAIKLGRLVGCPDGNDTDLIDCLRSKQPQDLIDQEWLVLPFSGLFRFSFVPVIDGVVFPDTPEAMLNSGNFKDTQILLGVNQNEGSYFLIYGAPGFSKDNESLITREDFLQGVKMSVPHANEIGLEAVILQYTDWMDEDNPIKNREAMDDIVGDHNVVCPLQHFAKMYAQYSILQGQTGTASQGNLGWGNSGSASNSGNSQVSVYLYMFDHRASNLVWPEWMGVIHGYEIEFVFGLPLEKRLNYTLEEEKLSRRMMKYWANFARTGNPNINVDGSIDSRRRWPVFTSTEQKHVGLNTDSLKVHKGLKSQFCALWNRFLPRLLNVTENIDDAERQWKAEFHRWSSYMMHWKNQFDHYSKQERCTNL
T1 sequence (O42275 24-633): as above
T3 sequence (O42275 24-633): as above

Compound | Ki (AChE; read-out: inhibition constant Ki,c (competitive component)) [µM] | Ki (AChE; read-out: inhibition constant Ki,nc (non-competitive component)) [µM] | type of AChE inhibition (AChE) | reversibility of AChE inhibition (AChE) | reversibility of AChE inhibition (AChE; listed as Buthutin A) | IC50 [1, 5] [µM] | SI for AChE = IC50 BChE/IC50 AChE [1] | Propidium Iodide Displacement [2] [%] | IC50 [3, 6] [µM] | metal binding ability toward Cu2+, Fe2+, Zn2+ and Al3+ [4] | IC50 [1] [µM] | IC50 AChE [1] | IC50 [3] [µM]
N=C(N)NCCCCNC(=O)c1ccc(O)cc1 [Compound 1, N-(4-guanidinobutyl)-4-hydroxybenzamide] | 2.64 ± 0.35 | 5.66 ± 0.82 | mixed type of inhibition | reversible inhibitors | reversible | 7.83 ± 0.06 | 6.05 | 18.29 ± 0.53 | 47.4 ± 0.95 | satisfactory biometal binding abilities; also recorded: potent metal binding ability; also recorded: satisfactory metal-binding properties |  |  | 
N=C(N)NCCCCNC(=O)c1ccccn1 [Compound 2, N-(4-guanidinobutyl)picolinamide] |  |  | mixed type of inhibition | reversible inhibitors |  | 61.4 ± 2.34 | 1.99 | 17.95 ± 0.98 | 123 ± 5.21 |  |  |  | 
C[n+]1cccc(C(=O)[O-])c1 [Compound 3] |  |  |  |  |  |  |  |  |  | satisfactory biometal binding abilities; also recorded: potent metal binding ability; also recorded: satisfactory metal-binding properties | 97.3 ± 4.18 | weaker inhibitory effect | 442 ± 7.99
CC(C)CCSS [Compound 4, 3-methylbuthyl hydrodisulfide] |  |  |  |  |  | 40.9 ± 3.21 | 3.73 |  | 153 ± 7.22 |  |  |  | 
